Measurements as given in patent publication US9328138B2 (priority 2011, dated 2016).
Where a name gives a salt, the structure may show the parent alone.

What was measured:
[1] = target: T1, HCV genotype 1b (BK) NS3 modified enzyme with a R155K mutation (Hepatitis C virus genotype 1b, UniProt P26663, R1181K); assay: HCV NS3 protease time-resolved fluorescence (TRF) assay, genotype 1b R155K; format: biochemical; conditions: Ki 1b R155K
T1 construct: HCV genotype 1b (BK) NS3 modified enzyme
How it was run: (§1)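 NS3/NS4A protease was pre-incubated 10 min with inhibitor in 50 mM HEPES pH 7.5, 150 mM NaCl, 15% glycerol, 0.15% Triton X-100, 10 mM DTT, 0.1% PEG 8000. TRF peptide substrate (25 nM final) was hydrolysed for 6 h at room temperature. IC50 came from four-parameter fits.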

[2] = target: HCV NS3 protease genotype 3a (3A-1) (Hepatitis C virus genotype 3a, UniProt Q81258); assay: HCV NS3 protease time-resolved fluorescence (TRF) assay, genotype 3a; format: biochemical; conditions: Ki 3a
How it was run: as §1

[3] = genotype 1b (BK) NS3 R155K, single value
[4] = first of two values printed in the cell (not explained)
[5] = second of two values printed in the cell (not explained)

C=C[C@@H]1C[C@]1(NC(=O)[C@@H]1C[C@@H]2CN1C(=O)[C@H](C(C)(C)C)NC(=O)O[C@@H]1C[C@H]1CCCCCc1c(nc3ccccc3c1OCCCN1CCC[C@@H]1C(N)=O)O2)C(=O)NS(=O)(=O)C1(C)CC1 [Example 208, (1aR,5S,8S,10R,22aR)-5-tert-butyl-17-{3-[(2R)-2-carbamoylpyrrolidin-1-yl]propoxy}-N-[(1R,2S)-2-ethenyl-1-{[(1-methylcyclopropyl)sulfonyl]carbamoyl}cyclopropyl]-3,6-dioxo-1,1a,3,4,5,6,9,10,18,19,20,21,22,22a-tetradecahydro-8H-7,10-methanocyclopropa[18,19][1,10,3,6] dioxadiazacyclononadecino[11,12-b] quinoline-8-carboxamide]
Ki [1, 3]: 0.11 nM | Ki [2]: 1 nM

C=C[C@@H]1C[C@]1(NC(=O)[C@@H]1C[C@@H]2CN1C(=O)[C@H](C1CCCC1)NC(=O)O[C@@H]1CCC[C@H]1CC/C=C/Cc1c(nc3ccccc3c1OCCCOC(=O)CN(C)C)O2)C(=O)NS(=O)(=O)C1CC1 [Example 74]
Ki [1, 3]: 0.1 nM | Ki [2]: 1.3 nM

C=C[C@@H]1C[C@]1(NC(=O)[C@@H]1C[C@@H]2CN1C(=O)[C@H](C1CCCCC1)NC(=O)O[C@@H]1C[C@H]1CCCCCc1c(nc3ccccc3c1OCCCN1CCOCC1)O2)C(=O)NS(=O)(=O)C1(C)CC1 [Example 240, 4-(3-{[(1aR,5S,8S,10R,22aR)-5-cyclohexyl-8-{[(1R,2S)-2-ethenyl-1-{[(1-methylcyclopropyl)sulfonyl]carbamoyl}cyclopropyl]carbamoyl}-3,6-dioxo-1,1a,3,4,5,6,9,10,18,19,20,21,22,22a-tetradecahydro-8H-7,10-methanocyclopropa[18,19][1,10,3,6]dioxadiazacyclononadecino[11,12-b]quinolin-17-yl]oxy}propyl)morpholin-4-ium formate]
Ki [1, 4]: 0.019 nM | Ki [1, 5]: 0.28 nM | Ki [2]: 2.9 nM

C=C[C@@H]1C[C@]1(NC(=O)[C@@H]1C[C@@H]2CN1C(=O)[C@H](C1CCCC1)NC(=O)O[C@@H]1CCC[C@H]1CC/C=C/Cc1c(nc3ccccc3c1OCCC1OCCO1)O2)C(=O)NS(=O)(=O)C1(C)CC1 [Example 50, (3aR,7S,10S,12R,21E,24aS)-7-cyclopentyl-19-[2-(1,3-dioxolan-2-yl)ethoxy]-N-[(1R,2S)-2-ethenyl-1-{[(1-methylcyclopropyl)sulfonyl]carbamoyl}cyclopropyl]-5,8-dioxo-1,2,3,3a, 5,6,7,8,11,12,20,23,24,24a-tetradeca hydro-10H-9,12-methanocyclopenta[18,19][1,10,3,6]dioxadiazacyclononadecino[11,12-b] quinoline-10-carboxamide]
Ki [1, 3]: 0.23 nM | Ki [2]: 6.6 nM

CC1(S(=O)(=O)NC(=O)[C@@]23C[C@H]2/C=C\CCCCC[C@@H]2NC(=O)O[C@@H]4C[C@H]4CCC/C=C/c4c(nc5ccccc5c4OCCCN4CCCCC4)O[C@@H]4C[C@@H](C(=O)N3)N(C4)C2=O)CC1 [Example 302, (1aR,5S,11Z,12aS,13aR,16S,19R,27E,31aR)—N-[(1-methylcyclopropyl)sulfonyl]-3,15,33-trioxo-26-[3-(piperidin-1-yl)propoxy]-1,1a,3,4,5,6,7,8,9,10,12a,13,15,16,18,19,29,30,31,31a-icosahydro-5,17:16,19-dimethanodicyclopropa[12,13:28,29][1,20,3,14,17]dioxatriazacyclononacosino[21,22-b]quinoline-13a(14H)-carboxamide]
Ki [1, 3]: 0.16 nM | Ki [2]: 2 nM

C=C[C@@H]1C[C@]1(NC(=O)[C@@H]1C[C@@H]2CN1C(=O)[C@H](C(C)(C)C)NC(=O)O[C@@H]1C[C@H]1CCCCCc1c(nc3ccccc3c1OC[C@H]1CCN(C(=O)OC(C)(C)C)C1)O2)C(=O)NS(=O)(=O)C1(C)CC1 [Example 137, tert-butyl (3S)-3-({[(1aR,5S,8S,10R,22aR)-5-tert-butyl-8-{[(1R,2S)-2-ethenyl-1-{[(1-methylcyclopropyl)sulfonyl]carbamoyl}cyclopropyl]carbamoyl}-3,6-dioxo-1,1a,3,4,5,6,9,10,18,19,20,21,22,22a-tetradecahydro-8H-7,10-methanocyclopropa[18,19][1,10,3,6]dioxadiazacyclononadecino[11,12-b]quinolin-17-yl]oxy}methyl)pyrrolidine-1-carboxylate]
Ki [1, 3]: 0.14 nM | Ki [2]: 1.2 nM

CC1(S(=O)(=O)NC(=O)[C@@]23C[C@H]2/C=C\CCCCC[C@@H]2NC(=O)O[C@@H]4C[C@H]4CCCCCc4c(nc5ccccc5c4OCCN4CCCC4)O[C@@H]4C[C@@H](C(=O)N3)N(C4)C2=O)CC1 [Example 306, (1aR,5S,11Z,12aS,13aR,16S,19R,31aR)—N-[(1-methylcyclopropyl)sulfonyl]-3,15,33-trioxo-26-[2-(pyrrolidin-1-yl)ethoxy]-1,1a,3,4,5,6,7,8,9,10,12a,13,15,16,18,19,27,28,29,30,31,31a-docosahydro-5,17:16,19-dimethanodicyclopropa[12,13:28,29][1,20,3,14,17]dioxatriazacyclononacosino[21,22-b]quinoline-13a(14H)-carboxamide]
Ki [1, 3]: 0.083 nM | Ki [2]: 0.72 nM

C=C[C@@H]1CC1(NC(=O)[C@@H]1C[C@@H]2CN1C(=O)[C@H](C1CCOCC1)NC(=O)O[C@@H]1C[C@H]1CCCCCc1c(nc3ccccc3c1OC1CCN(C)CC1)O2)C(=O)NS(=O)(=O)C1(C)CC1 (stereo partly drawn) [Example 252, potassium {[(1R,2S)-2-ethenyl-1-({[(1aR,5S,8S,10R,22aR)-17-[(1-methylpiperidin-4-yl)oxy]-3,6-dioxo-5-(tetrahydro-2H-pyran-4-yl)-1,1a,3,4,5,6,9,10,18,19,20,21,22,22a-tetradecahydro-8H-7,10-methanocyclopropa[18,19][1,10,3,6]dioxadiazacyclononadecino[11,12-b]quinolin-8-yl]carbonyl}amino)cyclopropyl]carbonyl}[(1-methylcyclopropyl)sulfonyl]azanide]
Ki [1, 4]: 0.009 nM | Ki [1, 5]: 0.022 nM | Ki [2]: 0.088 nM

C=C[C@@H]1C[C@]1(NC(=O)[C@@H]1C[C@@H]2CN1C(=O)[C@H](C1CCCCC1)NC(=O)O[C@@H]1C[C@H]1CCCCCc1c(nc3ccccc3c1OCCCN1CCC(S(C)(=O)=O)C1)O2)C(=O)NS(=O)(=O)C1(C)CC1 (stereo partly drawn) [Example 166, (1aR,5S,8S,10R,22aR)-5-cyclohexyl-N-[(1R,2S)-2-ethenyl-1-{[(1-methylcyclopropyl)sulfonyl]carbamoyl}cyclopropyl]-17-{3-[3-(methylsuflonyl)pyrrolidin-1-yl]propoxy}-3,6-dioxo-1,1a,3,4,5,9,10, 18,19,20,21,22,22a-tetradecahydro-8H-7,10-methanocyclopropa[18,19][1,10,3,6] dioxadiazacyclononadecino[11,12-b] quinoline-8-carboxamide]
Ki [1, 3]: 0.11 nM | Ki [2]: 2.2 nM

C=C[C@@H]1C[C@]1(NC(=O)[C@@H]1C[C@@H]2CN1C(=O)[C@H](C(C)(C)C)NC(=O)O[C@@H]1CCC[C@H]1CCCCCc1c(nc3ccccc3c1OCCCN1CCOCC1)O2)C(=O)NS(=O)(=O)C1CC1 [Example 98, (3aR,S,10S,12R,24aR)-7-tert-butyl-N-{(1R,2S)-1-[(cyclopropyl-sulfonyl)carbamoyl]-2-ethenylcyclopropyl}-19-[3-(morpholin-4-yl)propoxy]-5,8-dioxo-1,2,3,3a,5,6,7,8,11,12,20,21,22,23, 24,24a-hexadecahydro-10H-9,12-methanocyclopenta [18,19][1,10,3,6]dioxadiazacyclo-nonadecino[11,12-b]quinoline-10-carboxamide]
Ki [1, 3]: 0.18 nM | Ki [2]: 2.9 nM

C=C[C@@H]1C[C@]1(NC(=O)[C@@H]1C[C@@H]2CN1C(=O)[C@H](C(C)(C)C)NC(=O)O[C@@H]1CCC[C@H]1CCCCCc1c(nc3ccccc3c1OCCN(C)C)O2)C(=O)NS(=O)(=O)C1(COC)CC1 [Example 63, (3aR,7S,10S,12R, 24aR)-7-tert-butyl-19-[2-(dimethylamino)ethoxy]-N-[(1R,2S)-2-ethenyl-1-({[1-(methoxymethyl)cyclopropyl]sulfonyl}carbamoyl)cyclopropyl]-5,8-dioxo-1,2,3,3a, 5,6,7,8,11,12,20, 21,22,23,24,24a-hexadecahydro-10H-9,12-methanocyclopenta [18,19][1,10,3,6]dioxa-diazacyclononadecino [11,12-b]quinoline-10-carboxamide]
Ki [1, 3]: 0.35 nM | Ki [2]: 7.2 nM

C=C[C@@H]1C[C@]1(NC(=O)[C@@H]1C[C@@H]2CN1C(=O)[C@H](C(C)(C)C)NC(=O)O[C@@H]1C[C@H]1CCCCCc1c(nc3ccccc3c1OC[C@@H]1CCN(C(=O)OC(C)(C)C)C1)O2)C(=O)NS(=O)(=O)C1(C)CC1 [Example 138, tert-butyl (3R)-3-({[(1aR,5S,8S,10R, 22aR)-5-tert-butyl-8-{[(1R,2S)-2-ethenyl-1-{[(1-methylcyclopropyl)sulfonyl]carbamoyl}cyclopropyl]carbamoyl}-3,6-dioxo-1,1a,3,4,5,6,9,10,18,19,20, 21,22,22a-tetradeca hydro-8H-7,10-methanocyclopropa [18,19][1,10,3,6]dioxadiazacyclononadecino[11,12-b]quinolin-17-yl]oxy}methyl)pyrrolidine-1-carboxylate]
Ki [1, 3]: 0.63 nM | Ki [2]: 7 nM

C=C[C@@H]1CC1(NC(=O)[C@@H]1C[C@@H]2CN1C(=O)[C@H](C1CCCCC1)NC(=O)O[C@@H]1C[C@H]1CCCCCc1c(nc3ccccc3c1OCCCN1CC(F)C1)O2)C(=O)NS(=O)(=O)C1(C)CC1 (some centres unmarked) [Example 250]
Ki [1, 4]: 0.024 nM | Ki [1, 5]: 0.16 nM | Ki [2]: 4.45 nM
